Laboratory results published in patent US20250255867A1 (Kadmon Corporation, LLC, priority 2022, published 2025).

Tested on: patients with cGVHD
Test: Example 1: pulmonary function (percent predicted FEV1, FVC, DLco, TLC, RV) change from baseline
Format: in vivo, human
Description: Change From Baseline in Percent Predicted Forced Expiratory Volume in 1 Second (FEV1) at Each Specified Time Points. FEV1 was the volume of air exhaled from the lungs in the first second of a forced expiration as measured by spirometer. Baseline value was defined as valid and last non-missing value obtained within 28 days prior to participant receiving first study medication. EOT visit was performed within 3 days after the participant's last dose of study drug. […] Analysis was performed on mITT population. Here, ‘number analyzed’=participants with available data for each specified category. Here, ‘0’ in the number analyzed field signifies that none of the participants were available for the analysis at the specified time points.
Change From Baseline in Percent Predicted Forced Vital Capacity (FVC) at Each Specified Time Points. FVC was the total amount of air (in liters) exhaled from the lungs during the lung function test measured by spirometer which assessed the change in lung function related to the disease status. Baseline value was defined as valid and last non-missing value obtained within 28 days prior to participant receiving first study medication. EOT visit was performed within 3 days after the participant's last dose of study drug. […] Analysis was performed on mITT population. Here, ‘number analyzed’=participants with available data for each specified category. Here, ‘0’ in the number analyzed field signifies that none of the participants were available for the analysis at the specified time points.
Change From Baseline in Percent Predicted Hemoglobin (HGB) Corrected Diffusing Capacity of Lung for Carbon Monoxide (DLco) at Each Specified Time Points. DLco is a measurement of the ability of the lungs to transfer gases from the air to the blood. Change from baseline in diffusing capacity of the lung for carbon monoxide (percent predicted hemoglobin level corrected) was reported for this measure. Baseline value was defined as valid and last non-missing value obtained within 28 days prior to participant receiving first study medication. EOT visit was performed within 3 days after the participant's last dose of study drug. […] Analysis was performed on mITT population. Here, ‘number analyzed’=participants with available data for each specified category. Here, ‘0’ in the number analyzed field signifies that none of the participants were available for the analysis at the specified time points.
Change From Baseline in Percent Predicted Total Lung Capacity (TLC) at Each Specified Time Points. TLC is the volume of air in the lungs upon the maximum effort of inspiration. Baseline value was defined as valid and last non-missing value obtained within 28 days prior to participant receiving first study medication. EOT visit was performed within 3 days after the participant's last dose of study drug. […] Analysis was performed on mITT population. Here, ‘number analyzed’=participants with available data for each specified category.

In the case of `CC(C)NC(=O)COc1cccc(-c2nc(Nc3ccc4[nH]ncc4c3)c3ccccc3n2)c1` [Belumosudil, 2-{3-[4-(1H-indazol-5-ylamino)-2-quinazolinyl]phenoxy}-N-(propan-2-yl) acetamide], the “Change From Baseline in Percent Predicted Residual Volume (RV), Mean (Standard Deviation)” value (Cohort 2: 200 mg BID, Cycle 13, Day 1, n=4) is reported as −27.0 (35.6) percent predicted RV, the “Change From Baseline in Percent Predicted Residual Volume (RV), Mean (Standard Deviation)” value (Cohort 2: 200 mg BID, Cycle 14, Day 1, n=1) is reported as −31.0 (—) percent predicted RV and the “Change From Baseline in Percent Predicted Residual Volume (RV), Mean (Standard Deviation)” value (Cohort 2: 200 mg BID, Cycle 15, Day 1, n=3) is reported as −0.7 (18.1) percent predicted RV. The “Change From Baseline in Percent Predicted Residual Volume (RV), Mean (Standard Deviation)” value (Cohort 2: 200 mg BID, Cycle 16, Day 1, n=2) was −36.5 (13.4) percent predicted RV, the “Change From Baseline in Percent Predicted Residual Volume (RV), Mean (Standard Deviation)” value (Cohort 2: 200 mg BID, Cycle 17, Day 1, n=3) was −47.3 (25.1) percent predicted RV and the “Change From Baseline in Percent Predicted Residual Volume (RV), Mean (Standard Deviation)” value (Cohort 2: 200 mg BID, Cycle 18, Day 1, n=2) was −42.0 (0.0) percent predicted RV. The “Change From Baseline in Percent Predicted Residual Volume (RV), Mean (Standard Deviation)” value (Cohort 2: 200 mg BID, Cycle 19, Day 1, n=3) was −19.7 (18.0) percent predicted RV, the “Change From Baseline in Percent Predicted Residual Volume (RV), Mean (Standard Deviation)” value (Cohort 2: 200 mg BID, Cycle 20, Day 1, n=2) was −7.5 (37.5) percent predicted RV and the “Change From Baseline in Percent Predicted Residual Volume (RV), Mean (Standard Deviation)” value (Cohort 2: 200 mg BID, Cycle 21, Day 1, n=1) was −44.0 (—) percent predicted RV. For the same compound, the “Change From Baseline in Percent Predicted Residual Volume (RV), Mean (Standard Deviation)” value (Cohort 2: 200 mg BID, Cycle 22, Day 1, n=2) was −33.0 (19.8) percent predicted RV, the “Change From Baseline in Percent Predicted Residual Volume (RV), Mean (Standard Deviation)” value (Cohort 2: 200 mg BID, Cycle 23, Day 1, n=1) was −72.0 (—) percent predicted RV and the “Change From Baseline in Percent Predicted Residual Volume (RV), Mean (Standard Deviation)” value (Cohort 2: 200 mg BID, Cycle 24, Day 1, n=1) was −17.0 (—) percent predicted RV. For the same compound, the “Change From Baseline in Percent Predicted Residual Volume (RV), Mean (Standard Deviation)” value (Cohort 2: 200 mg BID, Cycle 25, Day 1, n=2) was −34.0 (31.1) percent predicted RV, the “Change From Baseline in Percent Predicted Residual Volume (RV), Mean (Standard Deviation)” value (Cohort 2: 200 mg BID, Cycle 27, Day 1, n=2) was −39.5 (20.5) percent predicted RV and the “Change From Baseline in Percent Predicted Residual Volume (RV), Mean (Standard Deviation)” value (Cohort 2: 200 mg BID, Cycle 29, Day 1, n=1) was −13.0 (—) percent predicted RV. The “Change From Baseline in Percent Predicted Residual Volume (RV), Mean (Standard Deviation)” value (Cohort 2: 200 mg BID, Cycle 37, Day 1, n=1) was −70.0 (—) percent predicted RV, the “Change From Baseline in Percent Predicted Residual Volume (RV), Mean (Standard Deviation)” value (Cohort 2: 200 mg BID, Cycle 39, Day 1, n=2) was −43.0 (42.4) percent predicted RV and the “Change From Baseline in Percent Predicted Residual Volume (RV), Mean (Standard Deviation)” value (Cohort 2: 200 mg BID, Cycle 43, Day 1, n=1) was −26.0 (—) percent predicted RV. For the same compound, the “Change From Baseline in Percent Predicted Residual Volume (RV), Mean (Standard Deviation)” value (Cohort 2: 200 mg BID, EOT, n=8) was 10.6 (34.9) percent predicted RV, the “Change From Baseline in Percent Predicted Residual Volume (RV), Mean (Standard Deviation)” value (Cohort 3: 400 mg QD, Cycle 2, Day 1, n=4) was −18.0 (30.1) percent predicted RV and the “Change From Baseline in Percent Predicted Residual Volume (RV), Mean (Standard Deviation)” value (Cohort 3: 400 mg QD, Cycle 3, Day 1, n=12) was 9.0 (34.4) percent predicted RV. For the same compound, the “Change From Baseline in Percent Predicted Residual Volume (RV), Mean (Standard Deviation)” value (Cohort 3: 400 mg QD, Cycle 4, Day 1, n=6) was 17.8 (29.0) percent predicted RV, the “Change From Baseline in Percent Predicted Residual Volume (RV), Mean (Standard Deviation)” value (Cohort 3: 400 mg QD, Cycle 5, Day 1, n=10) was −3.7 (29.8) percent predicted RV and the “Change From Baseline in Percent Predicted Residual Volume (RV), Mean (Standard Deviation)” value (Cohort 3: 400 mg QD, Cycle 6, Day 1, n=7) was −10.9 (37.5) percent predicted RV. The “Change From Baseline in Percent Predicted Residual Volume (RV), Mean (Standard Deviation)” value (Cohort 3: 400 mg QD, Cycle 7, Day 1, n=12) was −7.5 (33.0) percent predicted RV, the “Change From Baseline in Percent Predicted Residual Volume (RV), Mean (Standard Deviation)” value (Cohort 3: 400 mg QD, Cycle 8, Day 1, n=6) was 2.5 (39.7) percent predicted RV and the “Change From Baseline in Percent Predicted Residual Volume (RV), Mean (Standard Deviation)” value (Cohort 3: 400 mg QD, Cycle 9, Day 1, n=10) was 0.1 (35.6) percent predicted RV. The “Change From Baseline in Percent Predicted Residual Volume (RV), Mean (Standard Deviation)” value (Cohort 3: 400 mg QD, Cycle 10, Day 1, n=5) was 1.4 (38.2) percent predicted RV, the “Change From Baseline in Percent Predicted Residual Volume (RV), Mean (Standard Deviation)” value (Cohort 3: 400 mg QD, Cycle 11, Day 1, n=8) was 5.4 (38.0) percent predicted RV and the “Change From Baseline in Percent Predicted Residual Volume (RV), Mean (Standard Deviation)” value (Cohort 3: 400 mg QD, Cycle 12, Day 1, n=6) was −22.2 (49.9) percent predicted RV. For the same compound, the “Change From Baseline in Percent Predicted Residual Volume (RV), Mean (Standard Deviation)” value (Cohort 3: 400 mg QD, Cycle 13, Day 1, n=8) was 0.3 (32.6) percent predicted RV, the “Change From Baseline in Percent Predicted Residual Volume (RV), Mean (Standard Deviation)” value (Cohort 3: 400 mg QD, Cycle 14, Day 1, n=6) was −6.5 (36.3) percent predicted RV and the “Change From Baseline in Percent Predicted Residual Volume (RV), Mean (Standard Deviation)” value (Cohort 3: 400 mg QD, Cycle 15, Day 1, n=7) was −16.7 (22.3) percent predicted RV. For the same compound, the “Change From Baseline in Percent Predicted Residual Volume (RV), Mean (Standard Deviation)” value (Cohort 3: 400 mg QD, Cycle 16, Day 1, n=4) was −27.5 (31.9) percent predicted RV, the “Change From Baseline in Percent Predicted Residual Volume (RV), Mean (Standard Deviation)” value (Cohort 3: 400 mg QD, Cycle 17, Day 1, n=7) was −39.1 (26.2) percent predicted RV and the “Change From Baseline in Percent Predicted Residual Volume (RV), Mean (Standard Deviation)” value (Cohort 3: 400 mg QD, Cycle 18, Day 1, n=3) was −7.3 (33.7) percent predicted RV. For the same compound, the “Change From Baseline in Percent Predicted Residual Volume (RV), Mean (Standard Deviation)” value (Cohort 3: 400 mg QD, Cycle 19, Day 1, n=4) was −23.5 (18.7) percent predicted RV, the “Change From Baseline in Percent Predicted Residual Volume (RV), Mean (Standard Deviation)” value (Cohort 3: 400 mg QD, Cycle 20, Day 1, n=3) was −22.0 (44.3) percent predicted RV and the “Change From Baseline in Percent Predicted Residual Volume (RV), Mean (Standard Deviation)” value (Cohort 3: 400 mg QD, Cycle 21, Day 1, n=5) was −30.2 (51.2) percent predicted RV. For the same compound, the “Change From Baseline in Percent Predicted Residual Volume (RV), Mean (Standard Deviation)” value (Cohort 3: 400 mg QD, Cycle 22, Day 1, n=2) was −41.0 (46.7) percent predicted RV, the “Change From Baseline in Percent Predicted Residual Volume (RV), Mean (Standard Deviation)” value (Cohort 3: 400 mg QD, Cycle 23, Day 1, n=4) was 1.5 (44.8) percent predicted RV and the “Change From Baseline in Percent Predicted Residual Volume (RV), Mean (Standard Deviation)” value (Cohort 3: 400 mg QD, Cycle 24, Day 1, n=1) was −78.0 (—) percent predicted RV. For the same compound, the “Change From Baseline in Percent Predicted Residual Volume (RV), Mean (Standard Deviation)” value (Cohort 3: 400 mg QD, Cycle 25, Day 1, n=3) was −23.3 (56.0) percent predicted RV, the “Change From Baseline in Percent Predicted Residual Volume (RV), Mean (Standard Deviation)” value (Cohort 3: 400 mg QD, Cycle 27, Day 1, n=2) was −41.0 (28.3) percent predicted RV and the “Change From Baseline in Percent Predicted Residual Volume (RV), Mean (Standard Deviation)” value (Cohort 3: 400 mg QD, Cycle 29, Day 1, n=2) was 17.5 (40.3) percent predicted RV. For the same compound, the “Change From Baseline in Percent Predicted Residual Volume (RV), Mean (Standard Deviation)” value (Cohort 3: 400 mg QD, Cycle 39, Day 1, n=1) was 81.0 (—) percent predicted RV, the “Change From Baseline in Percent Predicted Residual Volume (RV), Mean (Standard Deviation)” value (Cohort 3: 400 mg QD, Cycle 43, Day 1, n=1) was 75.0 (—) percent predicted RV and the “Change From Baseline in Percent Predicted Residual Volume (RV), Mean (Standard Deviation)” value (Cohort 3: 400 mg QD, Cycle 47, Day 1, n=1) was 87.0 (—) percent predicted RV. The “Change From Baseline in Percent Predicted Residual Volume (RV), Mean (Standard Deviation)” value (Cohort 3: 400 mg QD, Cycle 49, Day 1, n=1) was −5.0 (—) percent predicted RV and the “Change From Baseline in Percent Predicted Residual Volume (RV), Mean (Standard Deviation)” value (Cohort 3: 400 mg QD, EOT, n=8) was −18.5 (32.6) percent predicted RV.
